From PubChem BioAssay (NCI)
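Test compounds were applied to cells in 96-well plates for 48 hours at 5 doses. GI50 marks 50% less growth. The concentration for full growth arrest is given as TGI.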

How the values were obtained:
Assay in all cases: NCI-60 cell line screen, 48 h
[1] = system: 786-0 renal
[2] = system: A498 renal
[3] = system: A549 NSCLC
[4] = system: ACHN renal
[5] = system: BT-549 breast
[6] = system: CAKI-1 renal
[7] = system: CCRF-CEM leukemia
[8] = system: COLO 205 colon
[9] = system: DU-145 prostate
[10] = system: EKVX NSCLC
[11] = system: HCC-2998 colon
[12] = system: HCT-116 colon
[13] = system: HCT-15 colon
[14] = system: HL-60(TB) leukemia
[15] = system: HOP-62 NSCLC
[16] = system: HOP-92 NSCLC
[17] = system: HS 578T breast
[18] = system: HT29 colon
[19] = system: IGROV1 ovarian
[20] = system: K-562 leukemia
[21] = system: KM12 colon
[22] = system: LOX IMVI melanoma
[23] = system: M14 melanoma
[24] = system: MALME-3M melanoma
[25] = system: MCF7 breast
[26] = system: MDA-MB-231 breast
[27] = system: MDA-MB-435
[28] = system: MOLT-4 leukemia
[29] = system: NCI-H226 lung
[30] = system: NCI-H23 lung
[31] = system: NCI-H460 lung
[32] = system: NCI-H522 lung
[33] = system: NCI/ADR-RES ovarian
[34] = system: OVCAR-3 ovarian
[35] = system: OVCAR-4 ovarian
[36] = system: OVCAR-5 ovarian
[37] = system: OVCAR-8 ovarian
[38] = system: PC-3 prostate
[39] = system: RPMI-8226 leukemia
[40] = system: RXF 393 renal
[41] = system: SF-268 CNS
[42] = system: SF-295 CNS
[43] = system: SF-539 CNS
[44] = system: SK-MEL-2 melanoma
[45] = system: SK-MEL-28 melanoma
[46] = system: SK-MEL-5 melanoma
[47] = system: SK-OV-3 ovarian
[48] = system: SN12C renal
[49] = system: SNB-19 CNS
[50] = system: SNB-75 CNS
[51] = system: SR leukemia
[52] = system: SW-620 colon
[53] = system: T-47D breast
[54] = system: TK-10 renal
[55] = system: U251 CNS
[56] = system: UACC-257 melanoma
[57] = system: UACC-62 melanoma
[58] = system: UO-31 renal

With `CC/C=C\C/C=C\C[C@H](O)C/C=C1/C(=O)C=C[C@@H]1C/C=C\CCCC(=O)OC` the GI50 [1] was 1.82 µM, the TGI [1] was 3.52 µM and the GI50 [2] was 2.48 µM. For the same compound, the TGI [2] was 4.67 µM, the GI50 [3] was 2.4 µM and the TGI [3] was 5.62 µM. For the same compound, the GI50 [4] was 1.72 µM, the TGI [4] was 3.4 µM and the GI50 [5] was 1.83 µM. For the same compound, the TGI [5] was 4.01 µM, the GI50 [6] was 3.41 µM and the TGI [6] was 14.5 µM. For the same compound, the GI50 [7] was 0.315 µM, the TGI [7] was 1.77 µM and the GI50 [8] was 1.77 µM. It also gave a TGI [8] of 3.78 µM, a GI50 [9] of 3.6 µM and a TGI [9] of 14.6 µM. It also gave a GI50 [10] of 3.15 µM, a TGI [10] of 10.9 µM and a GI50 [11] of 2.03 µM. The TGI [11] was 3.48 µM, the GI50 [12] was 0.841 µM and the TGI [12] was 2.29 µM. The GI50 [13] was 0.494 µM, the TGI [13] was 2.38 µM and the GI50 [14] was 1.71 µM. For the same compound, the TGI [14] was 6.06 µM, the GI50 [15] was 1.65 µM and the TGI [15] was 4.1 µM. It also gave a GI50 [16] of 2.62 µM, a TGI [16] of 6.02 µM and a GI50 [17] of 6.59 µM. The TGI [17] was 46.7 µM, the GI50 [18] was 1.48 µM and the TGI [18] was 3.21 µM. It also gave a GI50 [19] of 2.86 µM, a TGI [19] of 7.86 µM and a GI50 [20] of 0.546 µM. It also gave a TGI [20] of 12.5 µM, a GI50 [21] of 1.8 µM and a TGI [21] of 5.02 µM. For the same compound, the GI50 [22] was 0.21 µM, the TGI [22] was 0.493 µM and the GI50 [23] was 1.43 µM. It also gave a TGI [23] of 3.53 µM, a GI50 [24] of 1.92 µM and a TGI [24] of 4.88 µM. The GI50 [25] was 0.329 µM, the TGI [25] was 5.2 µM and the GI50 [26] was 3 µM. The TGI [26] was 10.3 µM, the GI50 [27] was 1.21 µM and the TGI [27] was 6.26 µM. For the same compound, the GI50 [28] was 1.2 µM, the TGI [28] was 4.41 µM and the GI50 [29] was 1.92 µM. It also gave a TGI [29] of 3.79 µM, a GI50 [30] of 2.19 µM and a TGI [30] of 5.29 µM. The GI50 [31] was 3.2 µM, the TGI [31] was 10.7 µM and the GI50 [32] was 1.03 µM. The TGI [32] was 2.36 µM, the GI50 [33] was 1.78 µM and the TGI [33] was 7.41 µM. For the same compound, the GI50 [34] was 0.799 µM, the TGI [34] was 2.2 µM and the GI50 [35] was 4.06 µM. It also gave a TGI [35] of 20.2 µM, a GI50 [36] of 2.75 µM and a TGI [36] of 6.94 µM. For the same compound, the GI50 [37] was 0.774 µM, the TGI [37] was 13 µM and the GI50 [38] was 2.54 µM. The TGI [38] was 6.68 µM, the GI50 [39] was 0.572 µM and the TGI [39] was 7.32 µM. The GI50 [40] was 1.97 µM, the TGI [40] was 3.61 µM and the GI50 [41] was 2.57 µM. The TGI [41] was 11 µM, the GI50 [42] was 2.3 µM and the TGI [42] was 5.56 µM. For the same compound, the GI50 [43] was 2.53 µM, the TGI [43] was 6.09 µM and the GI50 [44] was 1.72 µM. For the same compound, the TGI [44] was 3.79 µM, the GI50 [45] was 1.78 µM and the TGI [45] was 4 µM. For the same compound, the GI50 [46] was 1.54 µM, the TGI [46] was 2.93 µM and the GI50 [47] was 5.27 µM. For the same compound, the TGI [47] was 15 µM, the GI50 [48] was 1.9 µM and the TGI [48] was 5.01 µM. For the same compound, the GI50 [49] was 3.05 µM, the TGI [49] was 13.7 µM and the GI50 [50] was 11.3 µM. The TGI [50] was 24.6 µM, the GI50 [51] was 0.281 µM and the TGI [51] was 1.87 µM. For the same compound, the GI50 [52] was 0.834 µM, the TGI [52] was 10.3 µM and the GI50 [53] was 2.1 µM. For the same compound, the TGI [53] was 9.38 µM, the GI50 [54] was 2.95 µM and the TGI [54] was 7.68 µM. It also gave a GI50 [55] of 1.45 µM, a TGI [55] of 2.83 µM and a GI50 [56] of 1.83 µM. The TGI [56] was 4.32 µM, the GI50 [57] was 0.714 µM and the TGI [57] was 2.85 µM. It also gave a GI50 [58] of 1.55 µM and a TGI [58] of 3.03 µM.
`Cc1cc(C(O)CN(C)C)cc2c1ccc1cc(C(C)C)ccc12` (stereo unspecified) was tested, and the GI50 [1] was 1.84 µM, the TGI [1] was 3.4 µM and the GI50 [2] was 2.36 µM. It also gave a TGI [2] of 11.7 µM, a GI50 [3] of 1.93 µM and a TGI [3] of 3.54 µM. For the same compound, the GI50 [4] was 1.87 µM, the TGI [4] was 3.65 µM and the GI50 [5] was 5.67 µM. It also gave a TGI [5] of 19.5 µM, a GI50 [6] of 1.42 µM and a TGI [6] of 3.11 µM. It also gave a GI50 [7] of 2.48 µM, a TGI [7] of 5.65 µM and a GI50 [8] of 1.73 µM. The TGI [8] was 3.32 µM, the GI50 [9] was 2.19 µM and the TGI [9] was 4.08 µM. It also gave a GI50 [10] of 3.39 µM, a TGI [10] of 17.9 µM and a GI50 [11] of 1.57 µM. It also gave a TGI [11] of 3.16 µM, a GI50 [12] of 1.8 µM and a TGI [12] of 3.29 µM. For the same compound, the GI50 [13] was 1.81 µM, the TGI [13] was 3.61 µM and the GI50 [14] was 1.89 µM. It also gave a TGI [14] of 4.08 µM, a GI50 [15] of 1.59 µM and a TGI [15] of 3.08 µM. It also gave a GI50 [16] of 1.83 µM, a TGI [16] of 6.45 µM and a GI50 [17] of 2.58 µM. For the same compound, the TGI [17] was 8.92 µM, the GI50 [18] was 1.56 µM and the TGI [18] was 3.62 µM. It also gave a GI50 [19] of 1.85 µM, a TGI [19] of 3.8 µM and a GI50 [20] of 2.15 µM. It also gave a TGI [20] of 4.88 µM, a GI50 [21] of 1.82 µM and a TGI [21] of 3.32 µM. The GI50 [23] was 2.02 µM, the TGI [23] was 4.03 µM and the GI50 [24] was 1.92 µM. The TGI [24] was 3.83 µM, the GI50 [25] was 1.71 µM and the TGI [25] was 3.19 µM. It also gave a GI50 [26] of 1.64 µM, a TGI [26] of 3.55 µM and a GI50 [27] of 1.79 µM. For the same compound, the TGI [27] was 3.64 µM, the GI50 [28] was 2.16 µM and the TGI [28] was 5.22 µM. It also gave a GI50 [29] of 2.66 µM, a TGI [29] of 8.84 µM and a GI50 [30] of 2.85 µM. It also gave a TGI [30] of 10.6 µM, a GI50 [31] of 1.74 µM and a TGI [31] of 3.43 µM. For the same compound, the GI50 [32] was 1.84 µM, the TGI [32] was 3.72 µM and the GI50 [33] was 2.07 µM. The TGI [33] was 5.47 µM, the GI50 [34] was 1.92 µM and the TGI [34] was 3.6 µM. The GI50 [35] was 2.33 µM, the TGI [35] was 4.84 µM and the GI50 [36] was 2.02 µM. For the same compound, the TGI [36] was 4.36 µM, the GI50 [38] was 2.24 µM and the TGI [38] was 5.77 µM. The GI50 [39] was 2.36 µM, the TGI [39] was 5.12 µM and the GI50 [40] was 1.78 µM. For the same compound, the TGI [40] was 3.36 µM, the GI50 [41] was 2.8 µM and the TGI [41] was 7.73 µM. The GI50 [42] was 1.85 µM, the TGI [42] was 3.54 µM and the GI50 [43] was 1.98 µM. The TGI [43] was 3.59 µM, the GI50 [44] was 2 µM and the TGI [44] was 3.92 µM. For the same compound, the GI50 [45] was 1.88 µM, the TGI [45] was 3.36 µM and the GI50 [46] was 1.76 µM. It also gave a TGI [46] of 3.16 µM, a GI50 [47] of 4.58 µM and a TGI [47] of 20 µM. The GI50 [48] was 3.19 µM, the TGI [48] was 20.6 µM and the GI50 [49] was 2.07 µM. It also gave a TGI [49] of 4.75 µM, a GI50 [50] of 1.72 µM and a TGI [50] of 3.67 µM. The GI50 [51] was 1.96 µM, the TGI [51] was 5.21 µM and the GI50 [52] was 1.79 µM. The TGI [52] was 3.5 µM, the GI50 [53] was 2.04 µM and the TGI [53] was 4.48 µM. The GI50 [54] was 1.77 µM, the TGI [54] was 3.36 µM and the GI50 [55] was 1.92 µM. For the same compound, the TGI [55] was 3.53 µM, the GI50 [56] was 2.11 µM and the TGI [56] was 3.79 µM. It also gave a GI50 [58] of 1.58 µM and a TGI [58] of 3.72 µM.
